US8853147B2, “Use of peptide epoxyketones for metastasis suppression” (Onyx Therapeutics, Inc., priority 2009, dated 2014)
Entries after “also recorded” stand apart in the source; their conditions may differ.

System: 4T1 mammary carcinoma cells
Test: 4T1 mammary carcinoma metastasis model in BALB/c mice (mammary fat pad challenge, lung metastases)
Assay type: in vivo
Conditions: female BALB/c mice
Description: 6-8 week old female BALB/c mice were challenged in the mammary fat pad with 4T1 mammary carcinoma cells (1×10^5/mouse). Treatment was initiated on Day 3 post tumor challenge. Compound 1 was administered orally at 30 or 40 mg/kg on a weekly schedule of QDX2 or QDX5.

COC[C@H](NC(=O)c1cnc(C)s1)C(=O)N[C@@H](COC)C(=O)N[C@@H](Cc1ccccc1)C(=O)[C@@]1(C)CO1 [Compound 1]
reduction of the number of metastatic tumors in the lung (4T1 cells 1×10^5/mouse in mammary fat pad, oral 30 or 40 mg/kg, weekly schedule QDX2 or QDX5, treatment from Day 3 post tumor challenge): about 50% | repression of metastasis (number of metastatic tumors), result in words (4T1 model, both dose schedules (QDX2, QDX5) and dose levels (30, 40 mg/kg oral), FIG. 1): reduction in the number of metastatic breast tumors; also recorded: effective in repressing metastasis
